In brackets after ≈: the same amount, converted by molar mass. Like-named read-outs stand apart in the source and are kept apart here. Bridge positions count the residues as written; N and C are the ends. Square brackets hold non-standard residues; d marks the D form. Peptide text beside a SMILES is read from it. * marks the point of attachment. Octanoyl(7-Me) = CC(C)CCCCCC(=O)*; dOrn = NCCC[C@@H](N)C(=O)O; Orn = NCCC[C@H](N)C(=O)O

The subject of data set [1] is P. aeruginosa PAO1. Description: MIC. The data set is classed as cell-based. The following applies: polymyxin-susceptible reference strain.
The test system of another data set is E. coli O111:B4 LPS. The data set is described as follows: 1H NMR titration with LPS. Format: binding. The following applies: 23 °C, 50 mM acetate buffer pH 4.5, 1.5 mM peptide, 16 μL of 10 mg/mL LPS. The protocol:
NMR samples contained 0.75–2.0 mM laterocidine in a 50 mM acetate (d6) NMR buffer (90% H2O:10% D2O, pH 4.5 or ∼100% D2O, pH 4.5). Experiments were recorded on a Bruker 600 MHz NMR spectrometer equipped with a cryoprobe and Z axis gradient. 2D ^13C HSQC and 2D ^13C–^1H H2BC were recorded using gradients for coherence selection and sensitivity enhancement and additional presaturation of the solvent signal when required. 1D ^1H, 2D ^1H–^1H NOESY (with mixing times 35–200 ms), and 2D ^1H–^1H TOCSY experiments (mixing time 70 ms) used an excitation sculpting, DPFGSE sequence for water suppression.[51] Typical acquisition times for the 2D ^1H–^1H NOESY experiments were 524 ms (t2) and 40 ms (t1). For transferred LPS experiments, NMR data was recorded at 23–25 °C which was optimized for the least amide peak overlap. 2D ^1H–^1H NOESY spectra for the free peptide were also recorded at 23 °C. Spectra were processed with nmrPipe[52] or Topspin and analyzed with Xeasy[53] or NMRFAM Sparky.[54] Backbone assignments were made using the standard sequential NOE based assignment strategy using 2D ^1H–^1H TOCSY and 2D ^1H–^1H NOESY data. Side chain assignments were further aided using the 2D ^13C–^1H H2BC experiment. 1D ^1H STD experiments were recorded using excitation sculpting for water suppression. […]

Data set [2] deals with P. aeruginosa PAO1. Description: Flow cytometry of bacterial membrane integrity, respiration, polarity and oxidative stress. Format: cell-based. The note with it: 1 h exposure. The protocol:
The live cell impermeant fluorophore propidium iodide (PI) (Sigma-Aldrich, Castle Hill, NSW, Australia) was used to assess loss of membrane integrity (Ex/Em 488/660–690 nm) and the redox probe 5-cyano-2,3-ditolyl tetrazolium chloride (CTC) (Sigma-Aldrich, Castle Hill, NSW, Australia) used to assess loss of cellular respiration (Ex/Em 450/630 nm). […] Intracellular oxidative stress was measured using CR-G (CellROX Green) (Sigma-Aldrich, Castle Hill, NSW, Australia, Ex/Em 488/660–690 nm).[58] Appropriately diluted samples (600 μL) were stained separately with 12.5 μM PI, 2.5 mM CTC, 6 μM DiBAC, and 2.5 μM CR-G. Samples stained with both PI and DiBAC were incubated for 2 min and immediately analyzed. Samples stained with both CTC and CR-G were incubated for 45 min at RTP, and excess dye was pelleted out prior to analysis. Fluorescence intensity data were analyzed and log transformed using the NovoExpress software (V2.1, ACEA Biosciences, USA).[34]

Another data set relates to K. pneumoniae. Format: cell-based. Here is the method:
(§1) MICs for laterocidine and its various analogues were determined by broth microdilution[49] for the following polymyxin-susceptible ATCC and clinical isolates: P. aeruginosa FADDI-PA022, FADDI-PA001, FADDI-PA025, FADDI-PA070, FADDI-PA060; A. baumannii FADDI-AB134, FADDI-AB034, FADDI-AB030, FADDI-AB174, FADDI-AB241; K. pneumoniae FADDI-KP032, FADDI-KP022, BM1, FADDI-KP065, FADDI-KP064, FADDI-KP003; and E. cloacae FADDI-EC001, FADDI-EC003, and FADDI-EC006. Experiments were performed with cation-adjusted Mueller–Hinton broth (CAMHB) in 96-well polystyrene microtiter plates. Wells were inoculated with 100 μL of bacterial suspension prepared in CAMHB (containing ∼10^6 CFU/mL) and 100 μL of CAMHB containing increasing concentrations of polymyxins (0–32 μg/mL). MIC measurements were performed in duplicate, with the MIC being the lowest concentration at which visible growth was inhibited following 18–20 h of incubation at 37 °C. Bacterial killing kinetics was investigated over 24 h as described previously.[50]

Data set [3] deals with Gram-negative strains of P. aeruginosa, A. baumannii, K. pneumoniae, and E. cloacae. Format: cell-based. The protocol:
as §1

The test system of a further data set is E. cloacae. The data set is classed as cell-based. Here is the method: as §1
The subject of the next data set is P. aeruginosa. Format: cell-based. Here is the method: as §1
Data set [4] concerns P. aeruginosa PAO1. The data set is described as follows: Static time-kill study. Format: cell-based. Here is the method: as §1
Data set [5] deals with P. aeruginosa PAO1R. Description: Static time-kill study. The following applies: 8 × MIC, over 24 h. Format: cell-based. The protocol: as §1
Data set [6] deals with P. aeruginosa FADDI-PA070. The data set is described as follows: Neutropenic murine bloodstream infection model. The data set is classed as in vivo, P. aeruginosa in mice. The note with it: 8 mg/kg iv (free base) 2 h postinoculation, neutropenic mice, 4 h time point, N = 3, mean. Here is the method: (§2) All animal studies were approved by the Monash University Animal Ethics Committee and involved female Swiss mice (22–28 g, 7-week-old) housed in microisolators within a PC2 animal laboratory. Mice were kept under a 12/12 h dark/light cycle at 20–24 °C and 50–70% ambient humidity.
The neutropenic bloodstream infection model was undertaken as previously described.[39] Mice were rendered neutropenic through intraperitoneal injections of cyclophosphamide administered 4 days (150 mg/kg) and 1 day (100 mg/kg) prior to inoculation. Bloodstream infection was established by administering a 50 μL bolus of early log-phase bacterial suspension (4 × 10^8 CFU/mL). Laterocidine, peptide 11, and polymyxin B solutions were prepared in sterile saline at a concentration of 1 mg/mL (free base). Two hours postinoculation, mice (n = 3) were injected intravenously with either polymyxin B at 4 mg/kg (free base), peptide 11 at 8 mg/kg (free base), laterocidine at 8 mg/kg (free base), or saline (control mice). Blood was collected immediately after (0 h) and 4 h after drug administration, serially diluted with sterile saline, and appropriately diluted samples manually plated on nutrient agar prior to overnight incubation at 37 °C. Colonies were counted manually and the bacterial load (log10 CFU/mL) in the blood of each mouse calculated. In vivo efficacy was calculated as the difference between the log10 CFU/mL blood values of treated and control mice 4 h postdosing (Δlog10 CFU/mL blood = log10 [treated] CFU/mL blood–log10[control] CFU/mL blood).[54]

The subject of data set [7] is A. baumannii 5075 (wild type). The data set is described as follows: MIC. Format: cell-based.
For data set [8], the system named is P. aeruginosa PAO1R. Description: MIC. The following applies: polymyxin-resistant paired strain of PAO1. Format: cell-based.
A further data set deals with A. baumannii 5075D. The data set is classed as cell-based. The following applies: lacks lipid A in the outer membrane.
In a further data set the test system is A. baumannii 5075R. Format: cell-based. The note with it: lipid A modified with phosphoethanolamine.
The test system of another data set is female Swiss mice. The data set is described as follows: Acute toxicity in mice (maximum tolerable dose). Format: in vivo. The note with it: intravenous bolus via lateral tail vein, free base, N = 3. Here is the method:
as §2
For the acute toxicity studies, peptide 11 and laterocidine solutions were prepared in 0.9% saline and stored at 4 °C before use. All mice were administered an intravenous bolus of one peptide (mg/kg free base) via a lateral tail vein (≤0.1 mL). Following the injection, mice were released back into their respective home cages and individually monitored for 24 h for signs of clinical toxicity. Mice displaying any signs of toxicity were humanely euthanized according to the recommended Euthanasia/Humane Experimental End point Criteria.

[9] abbreviates: listed as Laterocidine (peptide 1).

Regarding `CC[C@H](C)[C@@H]1NC(=O)[C@@H](NC(=O)[C@H](Cc2c[nH]c3ccccc23)NC(=O)[C@@H](CCCN)NC(=O)CNC(=O)[C@H](CCCN)NC(=O)[C@@H](CCCN)NC(=O)[C@@H](Cc2c[nH]c3ccccc23)NC(=O)[C@@H](Cc2ccc(O)cc2)NC(=O)[C@@H](CO)NC(=O)CCCCCC(C)C)[C@@H](C)OC(=O)CNC(=O)CNC(=O)[C@H](CC(N)=O)NC1=O` [Laterocidine] ({Octanoyl(7-Me)}-[dS][dY][dW][dOrn][Orn]G[dOrn]WTINGG; ester 9-C), in the data set on P. aeruginosa PAO1 [1], the “MIC, P. aeruginosa PAO1” value was found to be 8 µg/mL (≈ 4.98 µM). For the same compound, in the data set with E. coli O111:B4 LPS, the “binding affinity to LPS (line broadening in 1H NMR titration)” value is listed as “weak to moderate binding affinity”. Also, the “membrane integrity (propidium iodide fluorescence)” value with P. aeruginosa PAO1 [2] (1 × MIC (2 μg/mL)) was “no loss of membrane permeability”; with P. aeruginosa PAO1 [2] (8 × MIC (16 μg/mL)) it was “substantial increase in permeability”. Besides, the “metabolic activity (CTC fluorescence)” value was “unaffected” with P. aeruginosa PAO1 [2] (1 × MIC (2 μg/mL)) and “markedly reduced” in the data set on P. aeruginosa PAO1 [2] (8 × MIC (16 μg/mL)). Besides, the “intracellular oxidative stress (CellROX Green)” value with P. aeruginosa PAO1 [2] (1 × and 8 × MIC) was “increase at both 1 × and 8 × MIC”. For the same compound, the “membrane potential (DiBAC fluorescence)” value in the data set with P. aeruginosa PAO1 [2] (1 × and 8 × MIC) is reported as “extensive loss of membrane potential at each concentration”. Besides, the “MICs against K. pneumoniae (range over strains)” value in the data set on K. pneumoniae lay within 1 to 4 µg/mL. The “MICs against the MDR strains (range)” value in data set [3] was in the range of 1 to 16 µg/mL. Besides, the “MICs against E. cloacae (range over strains)” value in the data set with E. cloacae lay within 1 to 2 µg/mL. Also, the “MICs against P. aeruginosa (range over strains)” value against P. aeruginosa lay within 4 to 8 µg/mL. Further, in the data set with P. aeruginosa PAO1 [4] (4 × MIC, 24 h), the “regrowth at 24 h, P. aeruginosa PAO1” value is ~2 log 10 CFU/mL. Moreover, the “time-kill outcome against P. aeruginosa PAO1” value with P. aeruginosa PAO1 [4] (8 × MIC, over 24 h) was “bacterial eradication was achieved at 24 h”. In addition, the “time-kill outcome against P. aeruginosa PAO1R” value with P. aeruginosa PAO1R [5] is given as “substantial regrowth occurring at all concentrations”. Further, the “Bacteria load in blood” value in data set [6] (listed as Peptide 1) came out at 16.93%; in [6] (listed as peptide 1) it was 16.9%. Further, the “MIC, A. baumannii 5075 S” value in data set [7] was 8 µg/mL (≈ 4.98 µM). Also, the “MIC, P. aeruginosa PAO1R” value against P. aeruginosa PAO1R [8] amounted to 8 µg/mL (≈ 4.98 µM). For the same compound, the “MIC, A. baumannii 5075 D” value against A. baumannii 5075D is 32 µg/mL (≈ 19.9 µM); against A. baumannii 5075D (setting [9]), > 32 µg/mL. In addition, the figures for the “MIC, A. baumannii 5075 R” value against A. baumannii 5075R and in the data set with A. baumannii 5075R (setting [9]) were 32 µg/mL (≈ 19.9 µM) and > 32 µg/mL, respectively. Moreover, in the data set with female Swiss mice, the “maximum tolerable dose (MTD), Iv (Bolus)” value is given as 13.2 mg/kg.

(Values after article PMC11428279, “Exploring Structure–Activity Relationships and Modes of Action of Laterocidine” (ACS Central Science, 2024).)
